# Reference: US20220339143A1, “TAK-925 FOR USE IN TREATING NARCOLEPSY” (Takeda Pharmaceutical Company Limited, priority 2019, published 2022)
# Where “and” joins values, the source holds several entries; their conditions need not be identical. Equal entries are not always repeated.
# Legend:
# [1] = system: patients with narcolepsy type 1 (NT1); assay: Sleep latency in Maintenance of Wakefulness Test (MWT), single dose (Cohorts 5, 6, 7); format: in vivo, human; settings: for average sleep latency in MWT, mean (SD): NT1 (placebo 2.88); for Average Sleep Latency in MWT: Cohort 5, 6, 7
# Procedure: In Part 2, NT1 patients received a single dose of Compound A or placebo administered as a continuous IV infusion over a 9-hour period during the day. A 40-minute Maintenance of Wakefulness Test (MWT) was conducted 4 times during the continuous IV infusion to assess effects on wakefulness in soporific conditions at 2, 4, 6 and 8 hours from start of infusion. Three cohorts of patients were enrolled (n=14 total).
# The average sleep latency in the Maintenance Wakefulness Test (MWT)
# Sleep related parameters in the MWT (sleep latency (SL) in each session).
# The pharmacodynamics (PD) for sleepiness is shown in FIG. 8, which depicts the average post-dose MWT sleep latency for NT1 patients overall all dose time points. Due to the crossover design, some subjects in the placebo group were the same as some subjects in 5 mg-44.8 mg group.
# patients with NT1 = assay: Number of cataplexy episodes (self-recorded sleep diary), multiple dose (Cohorts B1, B2); format: in vivo, human; settings: for Number of Cataplexy Episodes, Median / Number of Cataplexy Episodes, Mean: Treatment Period (Day 1-7 [until 24 hours after start of infusion])
# Procedure: The purpose of the study was to evaluate the safety, tolerability, pharmacokinetics and pharmacodynamics of Compound A after multiple IV administration in patients with NT1. NT1 patients were evaluated in Cohort B1 and B2 (Table 19). Compound A or placebo were administered via IV infusion over 9 hours once daily for 7 days. A total of 13 patients with NT1 were treated with Compound A or placebo (4, 4, and 5 subjects in the placebo, Compound A 11 mg, and Compound A 44 mg groups, respectively). In this part, potential efficacy of Compound A was evaluated with MWT, ESS, KSS, night-time PSG (NPSG), cataplexy frequency assessment, and PGI-C as an exploratory PD assessment.
# An overview of study schedule and PD testing in NT1 Patients is illustrated in FIG. 11. After screening, patients eligible for these parts had to discontinue any medication for narcolepsy including medications used for EDS or cataplexy. The medications had to be stopped for a minimum of 7 days or at least 5 half-lives of each medication, whichever was longer, before the first day of dosing (Day 1). As for a subject having possibility of getting injured due to severe cataplexy, the subject might have been confined to the site before Day −2 at a discretion of the investigator. In all cohorts of these parts, subjects underwent NPSG on Day −2 and baseline MWT sessions 4 times on Day −1 (at around 10:00, 12:00, 14:00, and 16:00). Study drug dosing via IV infusion was started at around 08:00. MWT was conducted on Day 1 at around 10:00, 12:00, 14:00, and 16:00. Subjects were allowed to take a nap on the days with no MWT assessment. At night of Day 6, the subjects underwent NPSG once again to evaluate the effect of multiple daytime dosing on night-time sleep structure. On Day 7, the subjects underwent MWT at the same hours as on Day −1. Cataplexy was to be evaluated by using the self-recorded sleep diary. The subjects were discharged from the study site on Day 8.
smiles,measurement,setting,value
"COC(=O)N1CCC[C@H](NS(C)(=O)=O)[C@@H]1CO[C@H]1CC[C@@H](c2ccccc2)CC1 [Compound A, methyl (2R,3S)-3-((methylsulfonyl)amino)-2-(((cis-4-phenylcyclohexyl)oxy)methyl)piperidine-1-carboxylate]","average sleep latency in MWT, LS mean difference (95% CI) minus placebo",[1]; 5 mg,"18.792 (11.987, 25.596) min"
same,"average sleep latency in MWT, mean (SD)",[1]; 5 mg single 9 h IV infusion,22.38 (10.125) min and 22.4 min and 22.38 min
same,"Sleep latency in MWT by visit, Mean","[1]; 5 mg, 10:00 (infusion start 7:45)",25.25 min
same,"Sleep latency in MWT by visit, Mean","[1]; 5 mg, 12:00",29.75 min
same,"Sleep latency in MWT by visit, Mean","[1]; 5 mg, 14:00",8.92 min
same,"Sleep latency in MWT by visit, Mean","[1]; 5 mg, 16:00",25.58 min
same,"average sleep latency in MWT, LS mean difference (95% CI) minus placebo",[1]; 11.2 mg,"36.063 (27.729, 44.396) min"
same,subjects achieving the maximum sleep latency (40 min) in MWT,[1]; 11.2 mg,3 out of 4
same,"average sleep latency in MWT, mean (SD)",[1]; 11.2 mg single 9 h IV infusion,37.59 (4.813) min and 37.6 min and 37.59 min
same,"Sleep latency in MWT by visit, Mean","[1]; 11.2 mg, 10:00",37.38 min
same,"Sleep latency in MWT by visit, Mean","[1]; 11.2 mg, 14:00",33.00 min
same,"Sleep latency in MWT by visit, Mean","[1]; 11.2 mg, 16:00",40.00 min
same,"average sleep latency in MWT, LS mean difference (95% CI) minus placebo",[1]; 44.8 mg,"36.662 (27.344, 45.979) min"
same,"average sleep latency in MWT, mean (SD)",[1]; 44.8 mg single 9 h IV infusion,40.00 (0.000) min and 40 min
same,subjects achieving the maximum sleep latency (40 min) in MWT,"[1]; 44.8 mg, all four 40-min trials",4 out of 4
same,"Sleep latency in MWT by visit, Mean","[1]; 44.8 mg, 10:00",40.00 min
same,"Sleep latency in MWT by visit, Mean","[1]; 44.8 mg, 12:00",40.00 min
same,"Sleep latency in MWT by visit, Mean","[1]; 44.8 mg, 14:00",40.00 min
same,"Sleep latency in MWT by visit, Mean","[1]; 44.8 mg, 16:00",40.00 min
same,effect on wakefulness as measured by time to sleep onset on the MWT,"[1]; 5, 11.2, 44.8 mg, NT1 patients",clear dose dependent effect
same,Average Sleep Latency in MWT,"[1]; Cmpd A 5 mg, Mean",22.38 min
same,Average Sleep Latency in MWT,"[1]; Cmpd A 5 mg, Median",21.69 min
same,Average Sleep Latency in MWT,"[1]; Cmpd A 11.2 mg, Mean",37.59 min
same,Average Sleep Latency in MWT,"[1]; Cmpd A 11.2 mg, Median",40.00 min
same,Average Sleep Latency in MWT,"[1]; Cmpd A 44.8 mg, Mean",40.00 min
same,Average Sleep Latency in MWT,"[1]; Cmpd A 44.8 mg, Median",40.00 min
same,mean sleep latency in the lunch session (14:00),[1]; higher dose groups of Compound A,over 30 min
same,"Number of Cataplexy Episodes (Time-matched), Median","patients with NT1; 11 mg, Day 1-7 (after infusion time up to 24 hours after start of infusion)",1.0
same,"Number of Cataplexy Episodes (Time-matched), Mean","patients with NT1; 11 mg, Day 1-7 (after infusion time up to 24 hours after start of infusion), time-matched baseline 5.8",3.0
same,"Number of Cataplexy Episodes (Time-matched), Median","patients with NT1; 11 mg, Day 1-7 (during infusion time)",0.0
same,"Number of Cataplexy Episodes (Time-matched), Mean","patients with NT1; 11 mg, Day 1-7 (during infusion time), time-matched baseline 5.8",0
same,"Number of Cataplexy Episodes (Time-matched), Mean","patients with NT1; 11 mg, Day 1-7 (during infusion time), time-matched baseline 5.8, listed as Cmpd A",0.0
same,"Number of Cataplexy Episodes, Median",patients with NT1; 11 mg,1.0
same,"Number of Cataplexy Episodes, Mean","patients with NT1; 11 mg, baseline 11.5",3.0
same,"Number of Cataplexy Episodes (Time-matched), Median","patients with NT1; 44 mg, Day 1-7 (after infusion time up to 24 hours after start of infusion)",1.0
same,"Number of Cataplexy Episodes (Time-matched), Mean","patients with NT1; 44 mg, Day 1-7 (after infusion time up to 24 hours after start of infusion), time-matched baseline 0.4",1.4
same,"Number of Cataplexy Episodes (Time-matched), Median","patients with NT1; 44 mg, Day 1-7 (during infusion time)",0.0
same,"Number of Cataplexy Episodes (Time-matched), Mean","patients with NT1; 44 mg, Day 1-7 (during infusion time), time-matched baseline 3.2",0
same,"Number of Cataplexy Episodes (Time-matched), Mean","patients with NT1; 44 mg, Day 1-7 (during infusion time), time-matched baseline 3.2, listed as Cmpd A",0.0
same,"Number of Cataplexy Episodes, Median",patients with NT1; 44 mg,1.0
same,"Number of Cataplexy Episodes, Mean","patients with NT1; 44 mg, baseline 3.6",1.4
